Patent US20240426845A1, “METHOD FOR DETECTING A LIPIDATED PROTEIN VIA FLUORESCENCE RESONANCE ENERGY TRANSFER (FRET)” (Biogen MA Inc., priority 2021, published 2024)

How the values were obtained:
[1] = tested on: CCF-STTG1 astrocytoma cells (ApoE lipoprotein secretion); assay: TR-FRET ApoE lipidation assay on media from CCF-STTG1 cells; assay type: cell-based; conditions: Homo sapiens, media from CCF-STTG cells, 48 hours incubation, europium-conjugated anti-ApoE antibody and DiD, n=3, read-out: EC50 (TR-FRET signal, ApoE lipidation)
Description: TR-FRET analysis was performed on an Envision plate reader (Perkin Elmer). The donor fluorophore (europium cryptate-conjugated antibody) was excited at 320 nm. A 40 μs delay occurred before measuring emission signals at 620 nm (donor fluorescence) and 665 nm wavelengths (DiD acceptor FRET signal) during a 400 μs window. Sample normalized FRET signal was determined by finding the ratio of the 665 nm emission to 620 nm emission.
(§1) To test whether the TR-FRET assay detects lipidated proteins secreted from cells, the TR-FRET assay was tested on concentrated media from cultures of CCF-STTG1 astrocytoma cells grown in the absence and presence of T0901317, a LXR transcription factor agonist that induces ApoE lipoprotein secretion. Samples of concentrated media were mixed with TR-FRET buffer, europium-conjugated anti-ApoE3 antibody and DiD, incubated at 37° C. for 20 hours, and then fluorescence was measured using an Envision plate reader. As a control, samples were analyzed by native-PAGE gels, a conventional method of detecting lipidated proteins.

[2] = tested on: CCF-STTG1 astrocytoma cells (ApoE lipoprotein secretion); assay: native-PAGE gel of ApoE lipidation in conditioned media; assay type: cell-based; conditions: CCF-STTG1 cell media following culture with compound
Description: as §1

O=S(=O)(c1ccccc1)N(CC(F)(F)F)c1ccc(C(O)(C(F)(F)F)C(F)(F)F)cc1 [T0901317]
EC50 [1]: 50.2 nM
lipidated ApoE in cell media by native-PAGE [2]: dose-dependent accumulation of lipidated ApoE
